Entries after “also recorded” stand apart in the source; their conditions may differ. Read-outs that look alike come from different tables or passages of the source. One block for each molecule: values may come before it.
How the values were obtained:
[1] = cited from earlier work
[2] = Dynamic/gravimetric vapour sorption (DVS/GVS) hygroscopicity; assay type: physicochemical; details: for hygroscopicity (in words): DVS/GVS at 25° C.
Procedure: Analyses were performed on an SMS DVS Advantage instrument. A few mg of the substance was added into an Al pan and exposed to stepwise RH changes according to 0-90-20% in steps of 10% RH, using open loop mode. The experiments were performed using a gas flow rate of 200 mL/min and at 25° C. The dm/dt criteria applied was 0.001 weight-%/min during a 5-minute window, with a maximum allowed time of 150 minutes and a minimum allowed time of 50 minutes for all steps except for the step at 0% RH, which had no criteria but was set to 6 h.
The hygroscopicity of Form A (as obtained from the synthesis described in Example 1), Form B (as obtained from a slurry in methanol/water 4:1) and Form C (as obtained from a slurry in ethanol) were investigated using GVS at 25° C. […] Form A can thus be classified as non-hygroscopic.
With a weight gain of about 3% at elevated humidities, it appears that a hydrate form is formed. Upon drying, Form B returned to the anhydrate; see FIGS. 12A and 12B, respectively.
Form C is thus classified as non-hygroscopic.

[3] = Thermogravimetric analysis (TGA) weight loss; assay type: physicochemical; details: heating up to 175° C.
Procedure: Analyses were performed on a PerkinElmer TGA8000 instrument. A few mg of sample was gently charged into open Pt-pans and analysed by weight in a flow of dry nitrogen gas (40 mL/min), to ensure an inert atmosphere. The sample was scanned from 25 to 200° C. using a continuous scan speed of 10° C./min.
This confirms that Form A is an anhydrate.

clinical = details: human, in vivo
Procedure: Linaprazan glurate is a prodrug of linaprazan, which was disclosed in WO 99/55706 and previously studied in Phase I and II studies. […] A clinical Phase I study has shown that administration of a single dose of linaprazan glurate can maintain the intragastric acidity above pH 4 for 24 hours. Linaprazan glurate is therefore tailored for patients with severe erosive gastroesophageal reflux disease (eGERD).
Whereas the plasma concentration of linaprazan glurate is only very low and difficult to determine, the plasma concentration of linaprazan may be determined instead. […] It is estimated that this requires a minimal plasma concentration (Cmin) of linaprazan of at least about 240 nmol/L after 22 hours. At such doses, a once daily oral administration of the formulation would be sufficient. In some embodiments, therefore, a single unit dose of a pharmaceutical composition of linaprazan glurate provides a Cmin of linaprazan in a human of at least about 240 nmol/L after 22 hours following oral administration of the pharmaceutical composition to said human. In other embodiments, a daily administration of two unit doses of a pharmaceutical composition of linaprazan glurate provides a Cmin of linaprazan in a human of at least about 240 nmol/L after 10 hours following oral administration of the last unit dose of the pharmaceutical composition to said human.

gastric acid = details: Phase I and II studies; cited from earlier work
intragastric acidity = details: cited from earlier work
[4] = cited from earlier work; remark: listed apart in the source
[5] = GVS at 25° C., humidity range of 0-90%

SMILES: Cc1cccc(C)c1CNc1cc(C(=O)NCCOC(=O)CCCC(=O)O)cn2c(C)c(C)nc12 [Form A of the free base]
solubility in water ([1]; pH 1): slightly soluble | solubility in water ([1]; pH 6.8): practically insoluble

SMILES: Br.Cc1cccc(C)c1CNc1cc(C(=O)NCCOC(=O)CCCC(=O)O)cn2c(C)c(C)nc12 [Form A]
water uptake ([2]; DVS, at 80% RH): about 0.15% | hygroscopicity (in words) [2]: non-hygroscopic; also recorded: very low hygroscopicity | water uptake [2, 5]: ~0.22% | weight loss [3]: 0.3%

SMILES: Cc1cccc(C)c1CNc1cc(C(=O)NCCOC(=O)CCCC(=O)O)cn2c(C)c(C)nc12 [linaprazan glurate, 5-{2-[({8-[(2,6-dimethylbenzyl)amino]-2,3-dimethylimidazo[1,2-a]pyridine-6-yl}carbonyl)-amino]ethoxy}-5-oxopentanoic acid]
control of gastric acid production (intragastric acidity; compared to linaprazan): total control of the gastric acid production for a longer time | time intragastric acidity maintained above pH 4 (intragastric acidity; single dose, Phase I): 24 hours | plasma concentration ([4]; after absorption): only very low | half-life in the body ([4]; compared to linaprazan): longer half-life | metabolism after absorption into the blood stream ([4]; in vivo): quickly metabolized into linaprazan

More lines, main results first:

water content ([2]; DVS, at 90% RH): not more than 0.05% | hygroscopicity (in words) [2]: non-hygroscopic; also recorded: very low | water uptake [2, 5]: about 0.05% | weight loss [3]: 0.2%
SMILES: Br.Cc1cccc(C)c1CNc1cc(C(=O)NCCOC(=O)CCCC(=O)O)cn2c(C)c(C)nc12 [Form C]

concentration at 22 h (clinical): ≥ 240 nM
SMILES: Cc1cccc(C)c1CNc1cc(C(=O)NCCO)cn2c(C)c(C)nc12 [linaprazan]
duration of acid inhibition (gastric acid): too short duration | elimination from the body (gastric acid): quickly eliminated from the body | onset of action (gastric acid): fast onset of action | tolerability (gastric acid): well tolerated

weight gain ([2]; GVS at 25° C., elevated humidities): about 3% | weight loss [3]: 0.3%
SMILES: Br.Cc1cccc(C)c1CNc1cc(C(=O)NCCOC(=O)CCCC(=O)O)cn2c(C)c(C)nc12 [Form B]
hygroscopicity (in words) [2]: significant water uptake with increasing humidity

Reference: patent US20260217705A1, “POLYMORPHS OF THE HYDROBROMIDE SALT OF LINAPRAZAN GLURATE” (CINCLUS PHARMA HOLDING AB (PUBL), priority 2023, published 2026)
